Measured values taken from patent US20220408731A1, “MODIFIED ANTIMICROBIAL PEPTIDES” (priority 2021, published 2022).
≈ marks a conversion by molar mass, not a printed value. Bridge positions count the residues as written; N and C are the ends. Square brackets hold non-standard residues; d marks the D form. Ends that are not written are not given here. Peptide text beside a SMILES is read from it. Dab = NCC[C@H](N)C(=O)O

Experiments:
B. cinerea = assay: Drop inoculation assay on detached Nicotiana benthamiana leaves (semi-in planta); type: in vivo, Botrytis cinerea; details: 48 h
[1] = system: Colletotrichum gloeosporioides

| Compound | MIC (μM) (SFM + 2 mM CaCl2) (Botrytis cinerea) | MIC (μM) (SFM + 100 mM KCl) (Botrytis cinerea) | MIC (μM) (SFM + 100 mM NaCl) (Botrytis cinerea) | MIC (μM) SFM (Botrytis cinerea) | Gray mold symptoms, drop inoculation assay (B. cinerea; peptide at 3 μM and 6 μM) | further results |
| --- | --- | --- | --- | --- | --- | --- |
| C[C@@H](O)[C@H](NC(=O)[C@H](CS)NC(=O)[C@H](Cc1c[nH]c2ccccc12)NC(=O)[C@H](CS)NC(=O)[C@H](CCCNC(=N)N)NC(=O)[C@H](Cc1ccccc1)NC(=O)[C@H](CC(=O)O)NC(=O)[C@H](CC(=O)O)NC(=O)[C@H](CCCNC(=N)N)NC(=O)[C@H](CS)NC(=O)[C@H](CCCNC(=N)N)NC(=O)CN)C(=O)N[C@@H](CCCCN)C(=O)N[C@@H](CC(N)=O)C(=O)N[C@@H](CS)C(=O)O [GMA1C, reference compound] (H-GRCRDDFRCWCTKNC-OH; N-terminus assumed) | >12 µM | >12 µM | >12 µM | >12 µM | – | – |
| CC[C@H](C)[C@H](NC(=O)[C@H](CCCNC(=N)N)NC(=O)[C@H](CS)NC(=O)[C@H](CCCNC(=N)N)NC(=O)CNC(=O)[C@@H](N)CO)C(=O)N[C@@H](CC(C)C)C(=O)N[C@@H](Cc1ccccc1)C(=O)N[C@@H](CCCNC(=N)N)C(=O)N[C@@H](CS)C(=O)N[C@@H](Cc1ccccc1)C(=O)N[C@@H](CS)C(=O)N[C@H](C(=O)N[C@@H](CCCCN)C(=O)N[C@@H](CC(N)=O)C(=O)N[C@@H](CS)C(N)=O)[C@@H](C)O [GMA1C_V1] (H-SGRCRILFRCFCTKNC-NH2; N-terminus assumed) | – | >12 µM | >6 µM | >6 µM | – | – |
| CC[C@H](C)[C@@H]1NC(=O)[C@H](CCCNC(=N)N)NC(=O)[C@@H](NC(=O)[C@H](CCCNC(=N)N)NC(=O)CNC(=O)[C@@H](N)CO)CSSC[C@@H](C(N)=O)NC(=O)[C@H](CC(N)=O)NC(=O)[C@H](CCCCN)NC(=O)[C@H]([C@@H](C)O)NC(=O)[C@H](Cc2c[nH]c3ccccc23)NC(=O)[C@H](Cc2ccccc2)NC(=O)[C@H](Cc2c[nH]c3ccccc23)NC(=O)[C@H](CCCNC(=N)N)NC(=O)[C@H](Cc2ccccc2)NC(=O)[C@H](CC(C)C)NC1=O [GMA1C_V2] (H-SGRCRILFRWFWTKNC-NH2; disulfide 4-16; N-terminus assumed) | 3 µM | >12 µM | 3 µM | 1.5 to 3 µM | completely abrogated gray mold symptoms | Gray mold symptoms, drop inoculation assay (B. cinerea; peptide at 1.5 μM): more effective than GMA1C_V1 |
| CC[C@H](C)[C@@H]1NC(=O)[C@H](CCCNC(=N)N)NC(=O)[C@@H](NC(=O)[C@H](CCCNC(=N)N)NC(=O)CNC(=O)[C@@H](N)CO)CSSC[C@@H](C(N)=O)NC(=O)[C@H](CC(N)=O)NC(=O)[C@H](CCCCN)NC(=O)[C@H]([C@@H](C)O)NC(=O)[C@H](Cc2ccccc2)NC(=O)[C@H](Cc2ccc(O)cc2)NC(=O)[C@H](Cc2c[nH]c3ccccc23)NC(=O)[C@H](CCCNC(=N)N)NC(=O)[C@H](Cc2ccccc2)NC(=O)[C@H](CC(C)C)NC1=O [GMA1C_V3] (H-SGRCRILFRWYFTKNC-NH2; disulfide 4-16; N-terminus assumed) | 6 µM | >12 µM | 3 µM | 1.5 µM (≈ 3.07 µg/mL) | – | – |
| C[C@@H](O)[C@H](NC(=O)[C@H](CS)NC(=O)[C@H](Cc1ccccc1)NC(=O)[C@H](CS)NC(=O)[C@H](CCCNC(=N)N)NC(=O)[C@H](CCCNC(=N)N)NC(=O)[C@H](CCCNC(=N)N)NC(=O)[C@H](Cc1ccccc1)NC(=O)CNC(=O)[C@H](CCCNC(=N)N)NC(=O)[C@H](CS)NC(=O)[C@H](CCCNC(=N)N)NC(=O)CN)C(=O)N[C@H](C(=O)N[C@@H](Cc1c[nH]cn1)C(=O)N[C@@H](CS)C(N)=O)[C@@H](C)O [GMA4AC, reference compound] (H-GRCRGFRRRCFCTTHC-NH2) | – | – | – | – | – | MIC, Alternaria alternata (Alternaria alternata): >12 µM; MIC, Cercospora sojina (Cercospora sojina): >12 µM; MIC, Colletotrichum gloeosporioides [1]: >12 µM |
| C[C@@H](O)[C@H](NC(=O)[C@H](CS)NC(=O)[C@H](Cc1ccccc1)NC(=O)[C@H](CS)NC(=O)[C@H](CCCNC(=N)N)NC(=O)[C@H](CCCNC(=N)N)NC(=O)[C@H](CCCNC(=N)N)NC(=O)[C@H](Cc1ccccc1)NC(=O)CNC(=O)[C@H](CCCNC(=N)N)NC(=O)[C@H](CS)NC(=O)[C@H](CCCNC(=N)N)NC(=O)CN)C(=O)N[C@H](C(=O)N[C@@H](Cc1c[nH]cn1)C(=O)N[C@@H](CS)C(N)=O)[C@@H](C)O [GMA4AC] (H-GRCRGFRRRCFCTTHC-NH2) | – | – | – | 3 µM (≈ 5.88 µg/mL) | – | – |
| N=C(N)NCCC[C@H](NC(=O)CNC(=O)[C@@H](N)Cc1ccccc1)C(=O)N[C@@H](CS)C(=O)N[C@@H](CCCNC(=N)N)C(=O)NCC(=O)N[C@@H](Cc1ccccc1)C(=O)N[C@@H](CCCNC(=N)N)C(=O)N[C@@H](CCCNC(=N)N)C(=O)N[C@@H](CCCNC(=N)N)C(=O)N[C@@H](CS)C(=O)N[C@@H](Cc1ccccc1)C(=O)N[C@@H](CS)C(=O)N[C@@H](Cc1c[nH]c2ccccc12)C(=O)N[C@@H](CCCNC(=N)N)C(=O)N[C@@H](Cc1c[nH]c2ccccc12)C(=O)N[C@@H](CS)C(=O)O [GMA4C_V4] (H-FGRCRGFRRRCFCWRWC-OH; N-terminus assumed) | – | – | – | – | – | B. cinerea MIC (Botrytis cinerea): 1.5 µM; MIC (μM) Botrytis cinerea (Botrytis cinerea): 3 µM (≈ 6.89 µg/mL); SFM + 2 mM CaCl2 MIC (Botrytis cinerea): 6 µM; SFM + 100 mM KCl MIC (Botrytis cinerea): 3 µM; SFM + 100 mM NaCl MIC (Botrytis cinerea): 3 µM; SFM MIC (Botrytis cinerea): 3 µM |
| NCC[C@H](NC(=O)CNC(=O)[C@@H](N)Cc1ccccc1)C(=O)N[C@@H](CS)C(=O)N[C@@H](CCN)C(=O)NCC(=O)N[C@@H](Cc1ccccc1)C(=O)N[C@@H](CCN)C(=O)N[C@@H](CCN)C(=O)N[C@@H](CCN)C(=O)N[C@@H](CS)C(=O)N[C@@H](Cc1ccccc1)C(=O)N[C@@H](CS)C(=O)N[C@@H](Cc1c[nH]c2ccccc12)C(=O)N[C@@H](CCN)C(=O)N[C@@H](Cc1c[nH]c2ccccc12)C(=O)N[C@@H](CS)C(=O)O [GMA4C_V5, FG(Dab)C(Dab)GF(Dab)(Dab)(Dab)CFCW(Dab)WC] (H-FG[Dab]C[Dab]GF[Dab][Dab][Dab]CFCW[Dab]WC-OH; N-terminus assumed) | – | – | – | – | – | B. cinerea MIC (Botrytis cinerea): 1.5 µM; MIC (μM) Botrytis cinerea (Botrytis cinerea): 6 µM (≈ 11.8 µg/mL); SFM + 2 mM CaCl2 MIC (Botrytis cinerea): >6 µM; SFM + 100 mM KCl MIC (Botrytis cinerea): >6 µM; SFM + 100 mM NaCl MIC (Botrytis cinerea): 6 µM; SFM MIC (Botrytis cinerea): 6 µM |
| C[C@H](NC(=O)CN)C(=O)N[C@@H](CS)C(=O)N[C@@H](Cc1c[nH]cn1)C(=O)N[C@@H](CCCNC(=N)N)C(=O)N[C@@H](CCC(N)=O)C(=O)NCC(=O)N[C@@H](Cc1ccccc1)C(=O)NCC(=O)N[C@@H](Cc1ccccc1)C(=O)N[C@@H](C)C(=O)N[C@@H](CS)C(=O)N[C@@H](Cc1ccccc1)C(=O)N[C@@H](CS)C(=O)N[C@@H](Cc1ccc(O)cc1)C(=O)N[C@@H](CCCCN)C(=O)N[C@@H](CCCCN)C(=O)N[C@@H](CS)C(N)=O [GMA5CA_WT, reference compound] (H-GACHRQGFGFACFCYKKC-NH2; N-terminus assumed) | >12 µM | >12 µM | >12 µM | 6 µM (≈ 12.2 µg/mL) | – | – |
| CC(C)C[C@@H]1NC(=O)[C@@H](NC(=O)[C@H](C)NC(=O)CN)CSSC[C@@H](C(=O)N[C@@H](Cc2ccc(O)cc2)C(N)=O)NC(=O)[C@H](Cc2c[nH]cn2)NC(=O)[C@H](CCCNC(=N)N)NC(=O)[C@H](Cc2ccc(O)cc2)NC(=O)[C@H](Cc2ccc(O)cc2)NC(=O)[C@H](Cc2c[nH]c3ccccc23)NC(=O)[C@H](Cc2ccccc2)NC(=O)[C@H](Cc2c[nH]c3ccccc23)NC(=O)CNC(=O)[C@H](Cc2ccc(O)cc2)NC(=O)[C@H](Cc2c[nH]cn2)NC(=O)[C@H](CCCCN)NC(=O)[C@H](CO)NC(=O)[C@H](Cc2c[nH]cn2)NC(=O)[C@H](CCCNC(=N)N)NC(=O)[C@H](CC(N)=O)NC(=O)[C@H](CCCCN)NC1=O [GMAOe1C_V3] (H-GACLKNRHSKHYGWFWYYRHCY-NH2; disulfide 3-21; N-terminus assumed) | 3 to 6 µM | 6 to 12 µM | 2 to 3 µM | 1.5 µM (≈ 4.31 µg/mL) | completely abrogated gray mold symptoms | Gray mold symptoms, drop inoculation assay (B. cinerea; peptide at 1.5 μM): more effective than GMAOe1C_V4 or GMAOe1C_WT |
| CC(C)C[C@@H]1NC(=O)[C@@H](NC(=O)[C@H](C)NC(=O)CN)CSSC[C@@H](C(=O)N[C@@H](Cc2ccc(O)cc2)C(N)=O)NC(=O)[C@H](Cc2c[nH]cn2)NC(=O)[C@H](CCCNC(=N)N)NC(=O)[C@H](Cc2ccc(O)cc2)NC(=O)[C@H](Cc2ccc(O)cc2)NC(=O)[C@H](Cc2c[nH]c3ccccc23)NC(=O)[C@H](Cc2ccccc2)NC(=O)[C@H](Cc2ccccc2)NC(=O)CNC(=O)[C@H](Cc2ccc(O)cc2)NC(=O)[C@H](Cc2c[nH]cn2)NC(=O)[C@H](CCCCN)NC(=O)[C@H](CO)NC(=O)[C@H](Cc2c[nH]cn2)NC(=O)[C@H](CCCNC(=N)N)NC(=O)[C@H](CC(N)=O)NC(=O)[C@H](CCCCN)NC1=O [GMAOe1C_V4] (H-GACLKNRHSKHYGFFWYYRHCY-NH2; disulfide 3-21; N-terminus assumed) | 6 to 12 µM | 6 to 12 µM | 6 µM | 1.5 µM (≈ 4.25 µg/mL) | completely abrogated gray mold symptoms | – |
| CC(C)C[C@H](NC(=O)[C@H](CS)NC(=O)[C@H](C)NC(=O)CN)C(=O)N[C@@H](CCCCN)C(=O)N[C@@H](CC(N)=O)C(=O)N[C@@H](CCCNC(=N)N)C(=O)N[C@@H](Cc1c[nH]cn1)C(=O)N[C@@H](CO)C(=O)N[C@@H](CCCCN)C(=O)N[C@@H](Cc1c[nH]cn1)C(=O)N[C@@H](Cc1ccc(O)cc1)C(=O)NCC(=O)N[C@@H](CS)C(=O)N[C@@H](Cc1ccc(O)cc1)C(=O)N[C@@H](CS)C(=O)N[C@@H](Cc1ccc(O)cc1)C(=O)N[C@@H](Cc1ccc(O)cc1)C(=O)N[C@@H](CCCNC(=N)N)C(=O)N[C@@H](Cc1c[nH]cn1)C(=O)N[C@@H](CS)C(=O)N[C@@H](Cc1ccc(O)cc1)C(N)=O [GMAOe1C_WT, reference compound] (H-GACLKNRHSKHYGCYCYYRHCY-NH2; N-terminus assumed) | >12 µM | 6 to 12 µM | 3 to 6 µM | 3 µM (≈ 8.18 µg/mL) | only effective at 6 μM | – |
| GACLKNRHSKHYGWFWYYRHCY-NH2 (cysteine pairing not given here) [GMAOe1C_V2] | – | – | – | – | completely abrogated gray mold symptoms | – |
